Data as given in PubChem BioAssay AID1963868 (Molecular Pharmacology Branch, DTP, NCI, 2024).

System: KRAS PDC tumor spheroids (HUVEC+MSC), viability
Assay: Anticancer human tumor 254851-301-R-J1-PDC patient-derived colon carcinoma cell line growth inhibition [KRAS2]
Conditions: for viability, T/C: stronger effect = lower value; active means viability on the fitted dose curve at most 10% of control; inactive means the rest
How it was run: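 Combination screen of spheroid viability in tumor-cell co-cultures with endothelial (HUVEC) and mesenchymal stem cell stroma. Each agent was tested in half-log dilutions, topping at clinical Cmax or at 10 microM without a known Cmax.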

[1] = curve of first compound, second compound 0.1 µM
[2] = curve of first compound, second compound 0.316 µM
[3] = curve of first compound, second compound 1 µM
[4] = curve of first compound, second compound 3.16 µM
[5] = curve of first compound, second compound 10 µM
[6] = second compound 0.1 µM, first compound 0.000316 µM
[7] = second compound 0.1 µM, first compound 0.001 µM
[8] = second compound 0.1 µM, first compound 0.00316 µM
[9] = second compound 0.1 µM, first compound 0.01 µM
[10] = second compound 0.1 µM, first compound 0.0316 µM
[11] = second compound 0.1 µM, first compound 0.1 µM
[12] = second compound 0.316 µM, first compound 0.000316 µM
[13] = second compound 0.316 µM, first compound 0.001 µM
[14] = second compound 0.316 µM, first compound 0.00316 µM
[15] = second compound 0.316 µM, first compound 0.01 µM
[16] = second compound 0.316 µM, first compound 0.0316 µM
[17] = second compound 0.316 µM, first compound 0.1 µM
[18] = second compound 1 µM, first compound 0.000316 µM
[19] = second compound 1 µM, first compound 0.001 µM
[20] = second compound 1 µM, first compound 0.00316 µM
[21] = second compound 1 µM, first compound 0.01 µM
[22] = second compound 1 µM, first compound 0.0316 µM
[23] = second compound 1 µM, first compound 0.1 µM
[24] = second compound 3.16 µM, first compound 0.000316 µM
[25] = second compound 3.16 µM, first compound 0.001 µM
[26] = second compound 3.16 µM, first compound 0.00316 µM
[27] = second compound 3.16 µM, first compound 0.01 µM
[28] = second compound 3.16 µM, first compound 0.0316 µM
[29] = second compound 3.16 µM, first compound 0.1 µM
[30] = second compound 10 µM, first compound 0.000316 µM
[31] = second compound 10 µM, first compound 0.001 µM
[32] = second compound 10 µM, first compound 0.00316 µM
[33] = second compound 10 µM, first compound 0.01 µM
[34] = second compound 10 µM, first compound 0.0316 µM
[35] = second compound 10 µM, first compound 0.1 µM
[36] = second compound 0.1 µM, first compound 0.316 µM
[37] = second compound 0.1 µM, first compound 1 µM
[38] = second compound 0.1 µM, first compound 3.16 µM
[39] = second compound 0.1 µM, first compound 10 µM
[40] = second compound 0.316 µM, first compound 0.316 µM
[41] = second compound 0.316 µM, first compound 1 µM
[42] = second compound 0.316 µM, first compound 3.16 µM
[43] = second compound 0.316 µM, first compound 10 µM
[44] = second compound 1 µM, first compound 0.316 µM
[45] = second compound 1 µM, first compound 1 µM
[46] = second compound 1 µM, first compound 3.16 µM
[47] = second compound 1 µM, first compound 10 µM
[48] = second compound 3.16 µM, first compound 0.316 µM
[49] = second compound 3.16 µM, first compound 1 µM
[50] = second compound 3.16 µM, first compound 3.16 µM
[51] = second compound 3.16 µM, first compound 10 µM
[52] = second compound 10 µM, first compound 0.316 µM
[53] = second compound 10 µM, first compound 1 µM
[54] = second compound 10 µM, first compound 3.16 µM
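Further: spheroids exposed to compounds for seven days before readout.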
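Wherever viability, T/C is given: 100% = DMSO vehicle control luminescence of the spheroids.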

Cn1ncnc1[C@H]1c2n[nH]c(=O)c3cc(F)cc(c23)N[C@@H]1c1ccc(F)cc1 + C=CC(=O)N1CCN(c2nc(=O)n(-c3c(C)ccnc3C(C)C)c3nc(-c4c(O)cccc4F)c(F)cc23)C(C)C1
inactive: viability, T/C [6] 101% | viability, T/C [7] 99.8% | viability, T/C [8] 99.2% | viability, T/C [9] 99.3% | viability, T/C [10] 106% | viability, T/C [11] 98.8% | viability, T/C [12] 97.5% | viability, T/C [13] 97.9% | viability, T/C [14] 96% | viability, T/C [15] 94.5% | viability, T/C [16] 88.5% | viability, T/C [17] 92.4% | viability, T/C [18] 90% | viability, T/C [19] 93.9% | viability, T/C [20] 98% | viability, T/C [21] 94.7% | viability, T/C [22] 97.7% | viability, T/C [23] 86.5% | viability, T/C [24] 97% | viability, T/C [25] 103% | viability, T/C [26] 94% | viability, T/C [27] 94.3% | viability, T/C [28] 96.3% | viability, T/C [29] 90.4% | viability, T/C [30] 108% | viability, T/C [31] 99.4% | viability, T/C [32] 102% | viability, T/C [33] 91.7% | viability, T/C [34] 87.4% | viability, T/C [35] 96.8%
> 100 nM: IC50 [1] | IC50 [2] | IC50 [3] | IC50 [4] | IC50 [5]

CC(=O)Nc1cccc(-n2c(=O)n(C3CC3)c(=O)c3c(Nc4ccc(I)cc4F)n(C)c(=O)c(C)c32)c1 + COc1cc2nc(C)nc(NC(C)c3cc(N)cc(C(F)(F)F)c3)c2cc1OC1CCOC1
2.19 nM: IC50 [4]
0.663 nM: IC50 [5]
inactive: viability, T/C (second compound 0.1 µM, first compound 0.0001 µM) 105% | viability, T/C [6] 97.8% | viability, T/C [7] 90.6% | viability, T/C [8] 60.4% | viability, T/C [9] 9.1% | viability, T/C (second compound 0.316 µM, first compound 0.0001 µM) 108% | viability, T/C [12] 99% | viability, T/C [13] 94% | viability, T/C [14] 62.7% | viability, T/C (second compound 1 µM, first compound 0.0001 µM) 111% | viability, T/C [18] 88.2% | viability, T/C [19] 89.9% | viability, T/C [20] 45.8% | viability, T/C (second compound 3.16 µM, first compound 0.0001 µM) 100% | viability, T/C [24] 97.7% | viability, T/C [25] 85.6% | viability, T/C [26] 33.4% | viability, T/C (second compound 10 µM, first compound 0.0001 µM) 84.8% | viability, T/C [30] 72.5% | viability, T/C [31] 38%
4.05 nM: IC50 [2]
3.89 nM: IC50 [1]
active: viability, T/C [10] 2.7% | viability, T/C [15] 6.64% | viability, T/C [16] 2.56% | viability, T/C [21] 5.69% | viability, T/C [22] 2.26% | viability, T/C [27] 4.02% | viability, T/C [28] 2.15% | viability, T/C [32] 3.27% | viability, T/C [33] 2.32% | viability, T/C [34] 1.62%
2.77 nM: IC50 [3]

CC(C)NCC(C(=O)N1CCN(c2ncnc3c2C(C)CC3O)CC1)c1ccc(Cl)cc1 (configuration not stated) + CC1OCC2(CCN(c3cnc(Sc4ccnc(N)c4Cl)c(N)n3)CC2)C1N
> 10000 nM: IC50 [1] | IC50 [2] | IC50 [3] | IC50 [4] | IC50 [5]
inactive: viability, T/C [10] 104% | viability, T/C [11] 97.1% | viability, T/C [36] 103% | viability, T/C [37] 93.2% | viability, T/C [38] 102% | viability, T/C [39] 85.3% | viability, T/C [16] 93% | viability, T/C [17] 86.6% | viability, T/C [40] 75.4% | viability, T/C [41] 79.6% | viability, T/C [42] 79.5% | viability, T/C [43] 88.4% | viability, T/C [22] 72.4% | viability, T/C [23] 72.4% | viability, T/C [44] 83.1% | viability, T/C [45] 75.6% | viability, T/C [46] 69.6% | viability, T/C [47] 68.5% | viability, T/C [28] 58.4% | viability, T/C [29] 68.9% | viability, T/C [48] 64.9% | viability, T/C [49] 66.4% | viability, T/C [50] 67.4% | viability, T/C [51] 70.8% | viability, T/C [34] 58.6% | viability, T/C [35] 64.5% | viability, T/C [52] 65.7% | viability, T/C [53] 60.9% | viability, T/C [54] 55.9% | viability, T/C (second compound 10 µM, first compound 10 µM) 58.4%

C=CC(=O)N1CCN(c2nc(OCC3CCCN3C)nc3c2CCN(c2cccc4cccc(C)c24)C3)CC1CC#N (configuration not stated)
> 3160 nM: IC50 (compound alone, run of 07/12/2021) | IC50 (compound alone, run of 07/19/2021) | IC50 (compound alone, run of 07/26/2021)
inactive: viability, T/C (compound 0.0316 µM) 98.7% [middle of 17 runs] | viability, T/C (compound 0.1 µM) 97% [middle of 17 runs]

COc1cc2nccc(Oc3ccc(NC(=O)C4(C(=O)Nc5ccc(F)cc5)CC4)cc3)c2cc1OC + C=CC(=O)N1CCN(c2nc(OCC3CCCN3C)nc3c2CCN(c2cccc4cccc(C)c24)C3)CC1CC#N
6790 nM: IC50 [3]
> 10000 nM: IC50 (curve of first compound, second compound 0.0316 µM)
839 nM: IC50 [4]
9150 nM: IC50 [2]
inactive: viability, T/C (second compound 0.0316 µM, first compound 0.0316 µM) 98.5% | viability, T/C (second compound 0.0316 µM, first compound 0.1 µM) 103% | viability, T/C (second compound 0.0316 µM, first compound 0.316 µM) 96.2% | viability, T/C (second compound 0.0316 µM, first compound 1 µM) 112% | viability, T/C (second compound 0.0316 µM, first compound 3.16 µM) 100% | viability, T/C (second compound 0.0316 µM, first compound 10 µM) 52.3% | viability, T/C [10] 115% | viability, T/C [11] 111% | viability, T/C [36] 109% | viability, T/C [37] 94.1% | viability, T/C [38] 103% | viability, T/C [39] 45% | viability, T/C [16] 111% | viability, T/C [17] 106% | viability, T/C [40] 110% | viability, T/C [41] 110% | viability, T/C [42] 96% | viability, T/C [43] 45.8% | viability, T/C [22] 108% | viability, T/C [23] 104% | viability, T/C [44] 99.3% | viability, T/C [45] 98.1% | viability, T/C [46] 80.5% | viability, T/C [47] 34.2% | viability, T/C [28] 56.9% | viability, T/C [29] 64.8% | viability, T/C [48] 66.4% | viability, T/C [49] 47.6%
9100 nM: IC50 [1]
active: viability, T/C [50] 2.41% | viability, T/C [51] 0.18%

Cn1nccc1Nc1nccc(-c2cc3c(s2)C(C)(C)N(CCN2CCOCC2)C3=O)n1
inactive: viability, T/C (compound 0.0316 µM) 92.9% [middle of 5 runs] | viability, T/C (compound 0.1 µM) 98.1% [middle of 5 runs] | viability, T/C (compound 0.316 µM) 102% [middle of 5 runs] | viability, T/C (compound 1 µM) 89.6% [middle of 5 runs] | viability, T/C (compound 3.16 µM) 51.9% [middle of 5 runs]
active: viability, T/C (compound 10 µM) 4.24% [middle of 5 runs]
3.28 µM [middle of 5 runs]: IC50 (curve of compound)

CC1COCCN1c1cc(-c2ccnn2C)c2ccnc(-c3ccn[nH]3)c2n1 (configuration not stated) + COc1cc2nc(C)nc(NC(C)c3cc(N)cc(C(F)(F)F)c3)c2cc1OC1CCOC1
120 nM: IC50 [5]
114 nM: IC50 [4]
350 nM: IC50 [3]
inactive: viability, T/C [9] 70.2% | viability, T/C [10] 46.4% | viability, T/C [11] 32.6% | viability, T/C [36] 42.3% | viability, T/C [37] 36.8% | viability, T/C [38] 14.2% | viability, T/C [15] 99.8% | viability, T/C [16] 112% | viability, T/C [17] 81% | viability, T/C [40] 58.5% | viability, T/C [41] 31.8% | viability, T/C [42] 25% | viability, T/C [21] 103% | viability, T/C [22] 104% | viability, T/C [23] 77% | viability, T/C [44] 50.5% | viability, T/C [45] 38% | viability, T/C [46] 24% | viability, T/C [27] 80% | viability, T/C [28] 64.3% | viability, T/C [29] 56.3% | viability, T/C [48] 29.3% | viability, T/C [49] 17.9% | viability, T/C [50] 25.7% | viability, T/C [33] 99.8% | viability, T/C [34] 92% | viability, T/C [35] 51.3% | viability, T/C [52] 33.5% | viability, T/C [53] 21.8% | viability, T/C [54] 20.9%
425 nM: IC50 [2]
37.4 nM: IC50 [1]
